The source of these data is PubChem BioAssay AID328 (DTP/NCI, 2004).

Molecules are shown by their SMILES. “And” between values parts separate entries of the source, which are not always exact repeats. Equal entries are not always repeated. Toxic doses and inconclusive results are not listed.

For this assay, the system named is BDF1 mice, P388 leukemia ip, median survival T/C. The assay is described as follows: NCI In Vivo Anticancer Drug Screen. Data for tumor model P388 Leukemia (intraperitoneal) in B6D2F1 (BDF1) mice. To be noted: endpoint: median survival time, higher = longer survival. In short, it runs like this: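 Each value expresses how treatment altered survival: treated-mouse outcome over vehicle-mouse outcome, both groups bearing the transplanted tumour.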

The mark [1] stands for this setting: dose: 50.0 mg/kg/injection, schedule: Q01DX009 (ip), vehicle: saline with Tween-80.
[2] abbreviates: dose: 100.0 mg/kg/injection, schedule: Q01DX009 (ip), vehicle: saline with Tween-80.
[3] abbreviates: dose: 200.0 mg/kg/injection, schedule: Q01DX009 (ip), vehicle: saline with Tween-80.
Where [4] appears, read: dose: 100.0 mg/kg/injection, schedule: Q04DX003 (ip), vehicle: Klucel (hydroxypropylcellulose) (HPC).
The mark [5] stands for this setting: dose: 25.0 mg/kg/injection, schedule: Q01DX009 (ip), vehicle: saline.
Setting [6] is: dose: 25.0 mg/kg/injection, schedule: Q04DX003 (ip), vehicle: saline.
Setting [7] is: dose: 12.5 mg/kg/injection, schedule: Q01DX009 (ip), vehicle: saline.
Setting [8] is: dose: 100.0 mg/kg/injection, schedule: Q04DX003 (ip), vehicle: saline with Tween-80.
Setting [9] is: dose: 400.0 mg/kg/injection, schedule: Q04DX003 (ip), vehicle: saline with Tween-80.
Where [10] appears, read: dose: 400.0 mg/kg/injection, schedule: Q01DX009 (ip), vehicle: saline with Tween-80.
Setting [11] is: dose: 100.0 mg/kg/injection, schedule: Q04DX003 (ip), vehicle: saline.
The mark [12] stands for this setting: dose: 200.0 mg/kg/injection, schedule: Q04DX003 (ip), vehicle: saline.
Where [13] appears, read: dose: 400.0 mg/kg/injection, schedule: Q04DX003 (ip), vehicle: saline.

As for `CCc1nc(N)nc(N)c1-c1ccc(Cl)c(Cl)c1`, the T/C was 110 % of control (dose: 6.25 mg/kg/injection, schedule: Q01DX010 (ip), vehicle: carboxymethylcellulose (CMC)); 90 % of control (dose: 8.0 mg/kg/injection, schedule: Q01DX009 (sc), vehicle: Klucel (hydroxypropylcellulose) (HPC)); 90 % of control (dose: 8.0 mg/kg/injection, schedule: Q03HX024 (ip), vehicle: Klucel (hydroxypropylcellulose) (HPC)); 100 % of control (dose: 12.5 mg/kg/injection, schedule: Q01DX010 (ip), vehicle: carboxymethylcellulose (CMC)); 90 % of control (dose: 25.0 mg/kg/injection, schedule: Q01DX010 (ip), vehicle: carboxymethylcellulose (CMC)); 163 % of control (dose: 32.0 mg/kg/injection, schedule: Q04DX003 (ip), vehicle: Klucel (hydroxypropylcellulose) (HPC)). The T/C was 86 % of control (dose: 64.0 mg/kg/injection, schedule: Q08DX002 (ip), vehicle: Klucel (hydroxypropylcellulose) (HPC)); 100 % of control (dose: 128.0 mg/kg/injection, schedule: Q01DX001 (sc), vehicle: Klucel (hydroxypropylcellulose) (HPC)); 86 % of control (dose: 128.0 mg/kg/injection, schedule: Q08DX002 (ip), vehicle: Klucel (hydroxypropylcellulose) (HPC)).
Turning to `O=[N+]([O-])c1ccc(NS(=O)(=O)c2cccs2)c([N+](=O)[O-])c1`, the T/C under setting [1] is 96 % of control.
In the case of `O=c1nc[nH]c(=O)[nH]1`, the T/C (dose: 25.0 mg/kg/injection, schedule: Q01DX009 (ip), vehicle: saline with Tween-80) was 97 % of control; the T/C under setting [1] is 99 % of control; the T/C under setting [2] was 97 % of control; the T/C under setting [3] was 104 % of control.
On to `Cc1cc(OCc2nc(N)nc(N)c2-c2ccc(Cl)c(Cl)c2)ccc1NS(=O)(=O)c1cccc(S(=O)(=O)F)c1`, for which the T/C was 109 % of control (dose: 45.0 mg/kg/injection, schedule: Q04DX003 (ip), vehicle: Klucel (hydroxypropylcellulose) (HPC)); 118 % of control (dose: 65.0 mg/kg/injection, schedule: Q04DX003 (ip), vehicle: Klucel (hydroxypropylcellulose) (HPC)); 122 % of control under setting [4]; 175 % of control (dose: 264.0 mg/kg/injection, schedule: Q04DX003 (ip), vehicle: Klucel (hydroxypropylcellulose) (HPC)); 170 % of control (dose: 400.0 mg/kg/injection, schedule: Q04DX003 (ip), vehicle: Klucel (hydroxypropylcellulose) (HPC)).
Take `O=C(/C=N/O)/C=N/O` (tested in a mixture with another compound): the T/C (dose: 6.0 mg/kg/injection, schedule: Q01DX009 (ip), vehicle: saline) was 108 % of control; the T/C (dose: 6.0 mg/kg/injection, schedule: Q04DX003 (ip), vehicle: saline) is 100 % of control; the T/C (dose: 12.0 mg/kg/injection, schedule: Q01DX009 (ip), vehicle: saline) is 100 % of control; the T/C (dose: 12.0 mg/kg/injection, schedule: Q04DX003 (ip), vehicle: saline) is 113 % of control; the T/C under setting [5] is 100 % of control; the T/C under setting [6] is 95 % of control.
Turning to `CC[n+]1cccc(NC(=O)c2ccc(NC(=O)c3ccc(C(=O)Nc4ccc(C(=O)Nc5ccc[n+](CC)c5)cc4)cc3)cc2)c1`, the T/C was 118 % of control (dose: 0.44 mg/kg/injection, schedule: Q04DX003 (ip), vehicle: saline); 150 % of control (dose: 0.88 mg/kg/injection, schedule: Q01DX009 (ip), vehicle: saline); 163 % of control (dose: 1.32 mg/kg/injection, schedule: Q01DX009 (ip), vehicle: saline); 190 % of control (dose: 2.0 mg/kg/injection, schedule: Q01DX009 (ip), vehicle: saline); 204 % of control (dose: 2.77 mg/kg/injection, schedule: Q01DX009 (ip), vehicle: saline); 177 % of control (dose: 3.0 mg/kg/injection, schedule: Q01DX009 (ip), vehicle: saline). The T/C was 191 % of control (dose: 4.17 mg/kg/injection, schedule: Q01DX009 (ip), vehicle: saline); 183 % of control and 220 % of control (dose: 6.25 mg/kg/injection, schedule: Q01DX009 (ip), vehicle: saline); 237 % of control (dose: 9.38 mg/kg/injection, schedule: Q01DX009 (ip), vehicle: saline); 168 % of control (dose: 11.0 mg/kg/injection, schedule: Q04DX003 (ip), vehicle: saline); 295 % of control under setting [7]; 200 % of control (dose: 16.5 mg/kg/injection, schedule: Q04DX003 (ip), vehicle: saline). The T/C under setting [5] is 90 % of control; the T/C under setting [6] is 200 % of control; the T/C (dose: 37.5 mg/kg/injection, schedule: Q04DX003 (ip), vehicle: saline) is 181 % of control.
Consider `O=C1CN(C(=O)CN2C(=O)c3ccccc3C2=O)C2(CCCCC2)O1`, for which the T/C under setting [8] is 100 % of control and the T/C under setting [9] is 100 % of control.
On to `CC[C@@H]1C[C@H]2CC3c4c(c5cc(OC)ccc5n4C)CCN(C2)C31`, for which the T/C was 102 % of control under setting [1], 105 % of control under setting [2] and 102 % of control under setting [3].
For the compound `BrCc1c(CBr)c(CBr)c(CBr)c(CBr)c1CBr`, the T/C is, setting by setting: (dose: 25.0 mg/kg/injection, schedule: Q01DX009 (ip), vehicle: Klucel (hydroxypropylcellulose) (HPC)) 95 % of control; (dose: 25.0 mg/kg/injection, schedule: Q04DX003 (ip), vehicle: Klucel (hydroxypropylcellulose) (HPC)) 109 % of control; (dose: 50.0 mg/kg/injection, schedule: Q01DX009 (ip), vehicle: Klucel (hydroxypropylcellulose) (HPC)) 100 % of control; (dose: 50.0 mg/kg/injection, schedule: Q04DX003 (ip), vehicle: Klucel (hydroxypropylcellulose) (HPC)) 100 % of control; (dose: 100.0 mg/kg/injection, schedule: Q01DX009 (ip), vehicle: Klucel (hydroxypropylcellulose) (HPC)) 109 % of control; under setting [4], 95 % of control.
Consider `CN(C)CCC(=O)c1ccc(Cl)cc1`, for which the T/C (dose: 18.8 mg/kg/injection, schedule: Q01DX009 (ip), vehicle: saline with Tween-80) was 96 % of control; the T/C (dose: 37.5 mg/kg/injection, schedule: Q01DX009 (ip), vehicle: saline with Tween-80) was 93 % of control; the T/C (dose: 75.0 mg/kg/injection, schedule: Q01DX009 (ip), vehicle: saline with Tween-80) was 113 % of control.
For the compound `CC(C)(N)CNC(C)(C)CO`, the T/C reads like this: (dose: 50.0 mg/kg/injection, schedule: Q01DX009 (ip), vehicle: saline) 95 % of control; (dose: 100.0 mg/kg/injection, schedule: Q01DX009 (ip), vehicle: saline) 111 % of control; (dose: 200.0 mg/kg/injection, schedule: Q01DX009 (ip), vehicle: saline) 92 % of control.
`COc1ccc(CC2=NCCc3cc(OC)c(OC)cc32)cc1OC`: the T/C under setting [7] was 153 % of control and the T/C under setting [5] was 99 % of control.
As for `CC1(C)OC2(C)CCC1C(=O)C2N1CCCCC1` (stereo not given), the T/C reads like this: (dose: 50.0 mg/kg/injection, schedule: Q01DX005 (ip), vehicle: saline with Tween-80) 105 % of control; (dose: 100.0 mg/kg/injection, schedule: Q01DX005 (ip), vehicle: saline with Tween-80) 95 % of control; (dose: 200.0 mg/kg/injection, schedule: Q01DX005 (ip), vehicle: saline with Tween-80) 101 % of control.
For the compound `COc1ccc(-c2cc(C(=O)O)c3cc4ccccc4cc3n2)cc1Br`, the T/C is 100 % of control under setting [2]; 100 % of control under setting [3]; 97 % of control under setting [10]; 109 % of control (dose: 600.0 mg/kg/injection, schedule: Q01DX009 (ip), vehicle: saline with Tween-80).
`C#CC1(OCC2CN(c3ccccc3)C(=O)O2)CCCCC1` (stereo not given): the T/C was 90 % of control under setting [2]; 100 % of control under setting [11]; 100 % of control under setting [3]; 100 % of control under setting [12]; 109 % of control under setting [10]; 100 % of control under setting [13].
Regarding `COc1cc(/C=N/NC(=O)c2cccs2)cc(OC)c1OC`, the T/C was 90 % of control under setting [8]; 90 % of control (dose: 200.0 mg/kg/injection, schedule: Q04DX003 (ip), vehicle: saline with Tween-80); 100 % of control under setting [9].
Turning to `CC(=O)N1C(=O)NC(=O)C1(CSCc1ccccc1)CSCc1ccccc1`, the T/C under setting [6] is 98 % of control; the T/C (dose: 50.0 mg/kg/injection, schedule: Q04DX003 (ip), vehicle: saline) is 98 % of control; the T/C under setting [11] was 116 % of control; the T/C under setting [12] is 107 % of control; the T/C under setting [13] was 99 % of control.
